Data: patent US20040009485A1, “Cellular arrays for the identification of altered gene expression” (priority 2002, published 2004)

Test system: SOS regulon gene fusions
Assay: Stress response of SOS regulon luxCDABE gene fusions (nalidixic acid)
Format: cell-based, E. coli
Details: for Nalidixic acid response ratio: 5 μg/ml, 110 minutes, LB, treated/untreated
Description: To test the stress responses, one or two single colonies of each selected strain were used to inoculate 5.0 ml of LB medium containing 150 μg/ml of ampicillin. These cultures were grown overnight at 37° C. then diluted by adding 50 μl or 100 μl of the overnight culture into 10.0 ml of fresh LB medium (without ampicillin) and grown with agitation at 37° C. until the culture was in exponential phase with readings on a Klett-Summerson colorimeter containing the red filter of between 10 and 40. These actively growing cultures were immediately used to initiate a stress response experiment by adding 50 μl of cultures to 50 μl of LB medium containing various concentrations of chemical in the wells a 96 well luminometer plate. This division of the actively growing culture at the time of chemical addition ensured identical populations were present when the stress was imposed. Light production was measured in a Dynex ML3000 luminometer at 37° C. The dimensionless units of light production, relative light units (RLU), are obtained by comparison with the light reading from an internal light-emitting diode. The cycle mode of the ML3000 luminometer, similar to previous descriptions (Van Dyk et al., Appl. Environ. Microbiol. 60:1414-120) was used.
The ability of these promoter-luxCDABE fusions to report activation of the SOS stress response was tested using nalidixic acid, a known, potent chemical inducer. The final concentrations of nalidixic acid were 1, 5, 25, and 125 μg/ml for all but strain DPD2293, which was tested at 80, 40, 20, 10, 5, 2.5, and 1.25 μg/ml.
Specificity of responses was tested by measuring the effect of ethanol on these SOS regulon gene fusions.

CCn1cc(C(=O)O)c(=O)c2ccc(C)nc21 [Nalidixic acid, nalidixic acid]
Nalidixic acid response ratio (dinF fusion, DPD2247 (lux-a.pk085.a5)): 2.2 | Nalidixic acid response ratio (dinG fusion, DPD2248 (lux-a.pk0024.f5)): 2.0 | Nalidixic acid response ratio (dinP fusion, DPD2249 (lux-a.pk055.a3)): 5.0 | bioluminescence compared with untreated culture (each of the eight SOS fusion strains, at least three concentrations (1-125 μg/ml; DPD2293 1.25-80 μg/ml)): increased bioluminescence | Nalidixic acid response ratio (recA fusion, DPD2250 (lux-a.pk022.d4)): 1.8 | Nalidixic acid response ratio (recA fusion, DPD2251 (lux-a.pk085.b5)): 2.8 | Nalidixic acid response ratio (ruvA fusion, DPD2293 (lux-a.pk058.f2)): 4.6 | Nalidixic acid response ratio (uvrA fusion, DPD2253 (lux-a.pk01.b6)): 1.4 | Nalidixic acid response ratio (uvrD fusion, DPD2254 (lux-a.pk052.b6)): 1.2
